Consider 21 compounds from ChEMBL document CHEMBL6087429, “Synthesis of drimanyl indole fragments of drimentine alkaloids and their antibacterial activities” (2025).

For orientation: MIC means the least concentration at which growth counts as inhibited. In general, inhibition refers to the percentage by which the read-out fell short of the control.

Values after ≈ are worked out from the molar mass of the structure shown.

Common to all, as to assay type: functional
The subject of test [1] is Ralstonia solanacearum. In words: Antibacterial activity against Ralstonia solanacearum Px1 assessed as inhibition of bacterial growth.
The subject of test [2] is Staphylococcus aureus. The test is described as follows: Antibacterial activity against Staphylococcus aureus ATCC 29213 assessed as inhibition of bacterial growth.
Test [3] concerns Staphylococcus aureus. In words: Antibacterial activity against Staphylococcus aureus ATCC 29213 assessed as inhibition of bacterial growth at 16 ug/ml.
Test [4] deals with Ralstonia solanacearum. In words: Antibacterial activity against Ralstonia solanacearum Px1 assessed as inhibition of bacterial growth at 16 ug/ml.
A further test deals with Pseudomonas aeruginosa. The test is described as follows: Antibacterial activity against Pseudomonas aeruginosa PA14 assessed as inhibition of bacterial growth.
Another test deals with Escherichia coli. In words: Antibacterial activity against Escherichia coli ATCC 25922 assessed as inhibition of bacterial growth.

`S=c1[nH]nc(NCNc2n[nH]c(=S)s2)s1`: the MIC in the test with Ralstonia solanacearum [1] came to 128 µg/mL (≈ 460 µM); with Staphylococcus aureus [2], 256 µg/mL (≈ 919 µM). In addition, the inhibition at 16 µg/mL with Staphylococcus aureus [3] and in the test on Ralstonia solanacearum [4] was 0% each time.

For the compound `Cc1c(C[C@@H]2[C@@]3(C)CCCC(C)(C)[C@@H]3CC[C@@]2(C)O)c2ccccc2n1Cc1ccc(F)cc1`, the inhibition at 16 µg/mL with Staphylococcus aureus [3] and with Ralstonia solanacearum [4] was 0% in each case. In addition, the “inhibition (INH)” value in the test with Pseudomonas aeruginosa and in the test on Escherichia coli was 0% throughout.

In the case of `Cc1c(C[C@@H]2[C@@]3(C)CCCC(C)(C)[C@@H]3CC[C@@]2(C)O)c2ccccc2n1-c1ccc(F)cc1`, the inhibition at 16 µg/mL in the test with Staphylococcus aureus [3] and in the test with Ralstonia solanacearum [4] was 0% each time. Besides, the “inhibition (INH)” value in the test with Pseudomonas aeruginosa and with Escherichia coli was 0% in each case.

As for `C=CCn1c(C)c(C[C@@H]2[C@@]3(C)CCCC(C)(C)[C@@H]3CC[C@@]2(C)O)c2ccccc21`, the inhibition at 16 µg/mL in the test on Staphylococcus aureus [3] and in the test on Ralstonia solanacearum [4] was 0% throughout. Moreover, the “inhibition (INH)” value in the test with Pseudomonas aeruginosa and in the test on Escherichia coli was 0% each time.

Turning to `Cc1ccc(-n2c(C)c(C[C@@H]3[C@@]4(C)CCCC(C)(C)[C@@H]4CC[C@@]3(C)O)c3ccccc32)cc1`, the inhibition at 16 µg/mL in the test with Staphylococcus aureus [3] and in the test with Ralstonia solanacearum [4] was 0% each time. The “inhibition (INH)” value in the test with Pseudomonas aeruginosa and in the test on Escherichia coli was 0% each time.

Take `Cc1c2c3ccccc3n1[C@]1(C)CC[C@H]3C(C)(C)CCC[C@]3(C)[C@H]1C2`: the inhibition at 16 µg/mL in the test on Staphylococcus aureus [3] and with Ralstonia solanacearum [4] was 0% in each case. Moreover, the “inhibition (INH)” value in the test with Pseudomonas aeruginosa and in the test with Escherichia coli was 0% throughout.

As for `Cc1c(C[C@@H]2[C@@]3(C)CCCC(C)(C)[C@@H]3CC[C@@]2(C)O)c2ccccc2n1-c1ccc(C(F)(F)F)cc1`, the inhibition at 16 µg/mL in the test with Staphylococcus aureus [3] and with Ralstonia solanacearum [4] was 0% in each case. Besides, the “inhibition (INH)” value with Pseudomonas aeruginosa and with Escherichia coli was 0% in each case.

Regarding `Cc1c(C[C@@H]2[C@@]3(C)CCCC(C)(C)[C@@H]3CC[C@@]2(C)O)c2ccccc2n1Cc1ccc(C(F)(F)F)cc1`, the inhibition at 16 µg/mL with Staphylococcus aureus [3] and in the test with Ralstonia solanacearum [4] was 0% throughout. The “inhibition (INH)” value with Pseudomonas aeruginosa and with Escherichia coli was 0% in each case.

For the compound `Cc1ccc(Cn2c(C)c(C[C@@H]3[C@@]4(C)CCCC(C)(C)[C@@H]4CC[C@@]3(C)O)c3ccccc32)cc1`, the inhibition at 16 µg/mL in the test on Staphylococcus aureus [3] and in the test with Ralstonia solanacearum [4] was 0% each time. Also, the “inhibition (INH)” value in the test on Pseudomonas aeruginosa and in the test with Escherichia coli was 0% in each case.

In the case of `Cc1c(C[C@@H]2[C@@]3(C)CCCC(C)(C)[C@@H]3CC[C@@]2(C)O)c2ccccc2n1-c1ccccc1`, the inhibition at 16 µg/mL in the test with Staphylococcus aureus [3] and in the test with Ralstonia solanacearum [4] was 0% throughout. The “inhibition (INH)” value in the test with Pseudomonas aeruginosa and in the test with Escherichia coli was 0% throughout.

On to `CCn1c(C)c(C[C@@H]2[C@@]3(C)CCCC(C)(C)[C@@H]3CC[C@@]2(C)O)c2ccccc21`, for which the inhibition at 16 µg/mL in the test with Staphylococcus aureus [3] and with Ralstonia solanacearum [4] was 0% each time. Besides, the “inhibition (INH)” value in the test on Pseudomonas aeruginosa and in the test on Escherichia coli was 0% throughout.

For the compound `CC1=C(Cc2c(C)[nH]c3ccccc23)[C@@]2(C)CCCC(C)(C)[C@@H]2CC1`, the inhibition at 16 µg/mL with Staphylococcus aureus [3] worked out at 0%; in the test on Ralstonia solanacearum [4], 92%. In addition, the “inhibition (INH)” value with Pseudomonas aeruginosa and in the test with Escherichia coli was 0% each time.

Take `Cc1c(C[C@@H]2[C@@]3(C)CCCC(C)(C)[C@@H]3CC[C@@]2(C)O)c2ccccc2n1Cc1ccccc1`: the inhibition at 16 µg/mL with Staphylococcus aureus [3] and in the test with Ralstonia solanacearum [4] was 0% throughout. The “inhibition (INH)” value in the test with Pseudomonas aeruginosa and in the test with Escherichia coli was 0% throughout.

As for `Cc1[nH]c2ccccc2c1C[C@@H]1[C@@]2(C)CCCC(C)(C)[C@@H]2CC[C@@]1(C)O`, the minimum inhibitory concentration (MIC) with Ralstonia solanacearum [1] was 8 µg/mL (≈ 22.6 µM). Besides, the inhibition at 16 µg/mL in the test on Staphylococcus aureus [3] is 93%; in the test on Ralstonia solanacearum [4], above 99%. In addition, the “inhibition (INH)” value in the test on Pseudomonas aeruginosa and in the test with Escherichia coli was 0% throughout.

In the case of `Cc1c(C[C@@H]2[C@@]3(C)CCCC(C)(C)[C@@H]3CC[C@@]2(C)O)c2ccccc2n1C(=O)c1ccccc1`, the inhibition at 16 µg/mL with Staphylococcus aureus [3] and with Ralstonia solanacearum [4] was 0% throughout. For the same compound, the “inhibition (INH)” value in the test on Pseudomonas aeruginosa and in the test with Escherichia coli was 0% throughout.

Regarding `CC1=CC[C@H]2C(C)(C)CCC[C@]2(C)[C@H]1Cc1c(C)[nH]c2ccccc12`, the figures for the inhibition at 16 µg/mL in the test on Staphylococcus aureus [3] and with Ralstonia solanacearum [4] were 0% and 95%, respectively. Besides, the “inhibition (INH)” value in the test on Pseudomonas aeruginosa and with Escherichia coli was 0% each time.

Consider `Cc1c(C[C@@H]2[C@@]3(C)CCCC(C)(C)[C@@H]3CC[C@@]2(C)O)c2ccccc2n1C`, for which the inhibition at 16 µg/mL in the test on Staphylococcus aureus [3] and in the test with Ralstonia solanacearum [4] was 0% in each case. Further, the “inhibition (INH)” value in the test with Pseudomonas aeruginosa and with Escherichia coli was 0% in each case.

On to `C=CCCn1c(C)c(C[C@@H]2[C@@]3(C)CCCC(C)(C)[C@@H]3CC[C@@]2(C)O)c2ccccc21`, for which the inhibition at 16 µg/mL in the test on Staphylococcus aureus [3] and with Ralstonia solanacearum [4] was 0% throughout. Also, the “inhibition (INH)” value in the test on Pseudomonas aeruginosa and with Escherichia coli was 0% throughout.

Turning to `C=C1CC[C@H]2C(C)(C)CCC[C@]2(C)[C@H]1Cc1c(C)[nH]c2ccccc12`, the minimal inhibitory concentration (MIC) in the test with Ralstonia solanacearum [1] turned out to be 16 µg/mL (≈ 47.7 µM). Further, the inhibition at 16 µg/mL in the test with Staphylococcus aureus [3] was 0%; in the test on Ralstonia solanacearum [4], above 99%. The “inhibition (INH)” value with Pseudomonas aeruginosa and in the test on Escherichia coli was 0% throughout.

Take `C=C[C@](C)(O)CC[C@@H]1[C@@]2(C)CCCC(C)(C)[C@@H]2CC[C@@]1(C)O` [SCLAREOL]: the MIC turned out to be 32 µg/mL (≈ 104 µM) in the test with Ralstonia solanacearum [1] and 16 µg/mL (≈ 51.9 µM) in the test with Staphylococcus aureus [2]. Also, the figures for the inhibition at 16 µg/mL in the test on Staphylococcus aureus [3] and with Ralstonia solanacearum [4] were above 99% and 65%, respectively. Moreover, the “inhibition (INH)” value in the test with Pseudomonas aeruginosa and with Escherichia coli was 0% throughout.

On to `CN[C@H](CC(C)C)C(=O)N[C@H]1C(=O)N[C@@H](CC(N)=O)C(=O)N[C@H]2C(=O)N[C@H]3C(=O)N[C@H](C(=O)N[C@H](C(=O)O)c4cc(O)cc(O)c4-c4cc3ccc4O)[C@H](O)c3ccc(c(Cl)c3)Oc3cc2cc(c3O[C@@H]2O[C@H](CO)[C@@H](O)[C@H](O)[C@H]2O[C@H]2C[C@](C)(N)[C@H](O)[C@H](C)O2)Oc2ccc(cc2Cl)[C@H]1O` [VANCOMYCIN], for which, in the test with Ralstonia solanacearum [1], the MIC is below 0.5 µg/mL. In addition, the inhibition at 16 µg/mL in the test with Staphylococcus aureus [3] and in the test on Ralstonia solanacearum [4] was above 99% throughout.
